According to patent US11484599B2, “Polymer conjugate vaccines” (The University of Chicago, priority 2015, dated 2022):

What was measured:
TLR7 = target: T1, TLR7 (Homo sapiens, UniProt Q9NYK1); assay: HEK-Blue TLR7-activation reporter cell assay; conditions: media with 2.0 μM agonist (polymer: 2.0 μM of TLR7-MA in polymeric form), 12 h
T1 sequence (Q9NYK1 27-1049): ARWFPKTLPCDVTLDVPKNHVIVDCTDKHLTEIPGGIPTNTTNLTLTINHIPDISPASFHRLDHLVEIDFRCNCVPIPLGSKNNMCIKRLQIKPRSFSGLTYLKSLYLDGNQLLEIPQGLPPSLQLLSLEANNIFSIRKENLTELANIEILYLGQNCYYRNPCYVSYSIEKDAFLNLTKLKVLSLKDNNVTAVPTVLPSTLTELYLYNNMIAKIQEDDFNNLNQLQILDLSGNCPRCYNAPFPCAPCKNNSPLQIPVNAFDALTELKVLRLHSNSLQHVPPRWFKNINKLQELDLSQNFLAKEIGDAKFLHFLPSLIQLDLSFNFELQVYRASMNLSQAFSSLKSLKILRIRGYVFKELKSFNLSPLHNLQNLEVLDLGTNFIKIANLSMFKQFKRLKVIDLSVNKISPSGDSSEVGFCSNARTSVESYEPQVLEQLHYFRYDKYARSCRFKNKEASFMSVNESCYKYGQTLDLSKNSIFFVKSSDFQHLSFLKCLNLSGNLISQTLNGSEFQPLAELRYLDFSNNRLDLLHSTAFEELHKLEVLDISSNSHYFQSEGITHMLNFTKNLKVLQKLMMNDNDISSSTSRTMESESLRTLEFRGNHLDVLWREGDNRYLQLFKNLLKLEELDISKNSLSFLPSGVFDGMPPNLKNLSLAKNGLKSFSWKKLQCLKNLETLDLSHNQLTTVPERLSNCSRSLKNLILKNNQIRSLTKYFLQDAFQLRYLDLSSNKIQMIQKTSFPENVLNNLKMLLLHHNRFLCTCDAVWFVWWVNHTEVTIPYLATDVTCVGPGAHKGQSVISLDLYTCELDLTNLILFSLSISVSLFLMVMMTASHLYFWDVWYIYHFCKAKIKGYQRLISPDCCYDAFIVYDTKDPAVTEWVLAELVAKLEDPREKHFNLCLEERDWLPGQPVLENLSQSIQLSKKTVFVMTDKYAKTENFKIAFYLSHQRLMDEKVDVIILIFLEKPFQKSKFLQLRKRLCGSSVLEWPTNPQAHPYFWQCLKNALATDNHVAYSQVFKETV

[1] = tested on: bone marrow derived dendritic cells (BMDCs); assay: Viability / toxicity in treated BMDCs; type: cell-based; conditions: 10 μM
Excerpt: Given that DCs are the primary target for the polymer-conjugates, Applicants treated bone marrow derived dendritic cells (BMDCs) with various concentrations of TLR7-MA, p(man-TLR), or the synthetic oligonucleotide CpG, a powerful TLR-9 agonist.

[2] = tested on: lymph node resident DC subsets; assay: Uptake of fluorescently labeled OVA by lymph node DC subsets after i.d. injection; type: in vivo, mice; conditions: 12 h
Description: Mice were treated with an intradermal injection of fluorescently labeled OVA or fluorescently labeled OVA conjugated to either p(Man) or p(Man-TLR). After 12 h, the lymph nodes of the animals were harvested and the cells of the lymph nodes were analyzed for fluorescently labeled OVA content via flow cytometry. Conjugation of OVA to p(Man-TLR) increases the uptake of OVA by CD8+ cross-presenting DCs (a.), CD4+ activating DCs (b.), CD4−/CD8− lymph node resident DCs (c.), and conventional dermal DCs (d.).
It is contemplated that conjugating p(Man-TLR) to antigens will improve their uptake by DCs and increased DC activation. […] After 12 h, the lymph node resident DC subsets of these animals were analyzed for fOVA.

[3] = tested on: circumsporozite protein (CSP) from Plasmodium falciparum; assay: Example 12: vaccination with malaria antigen CSP formulations, cellular and humoral response; type: in vivo, mice
Description: FIG. 17: To characterize the response to an actual vaccinal antigen, and to compare to an advanced clinical adjuvant, the inventors made the polymer conjugate formulation with the P. falciparum antigen CSP (the full-length protein).
FIG. 18: To characterize humoral responses to the CSP-p(Man-TLR) polymer conjugate formulation, Tfh cells were characterized in the spleen and IgG concentrations were measured in the blood.
The inventors benchmarked the performance of antigen-p(Man-TLR) conjugates against other vaccine adjuvant formulations that have been reported to produce effective immune responses, using a malaria antigen, specifically circumsporozite protein (CSP) from Plasmodium falciparum. Mice were treated on days 0 and 21 via intradermal injection into the 4 footpads with CSP-p(Man-TLR), CSP and MPLA/QS-21 liposomes (AS01E), CSP and the adjuvant R848, CSP and poly(I:C), or saline (Vehicle). AS01E is used in a clinical malaria vaccine formulation. All animals treated with formulations containing CSP received 10 μg of CSP. Animals treated with CSP-p(Man-TLR) received 20 μg TLR agonist in the polymeric form. Animals treated with AS01E received 2.5 μg of QS21. Animals treated with CSP and R848 were treated with 20 μg of R848. Animals treated with CSP and poly(I:C) received 15 μg poly(I:C). […] CSP-p(Man-TLR) induced a robust humoral response.

CSP peptide stretches = assay: Breadth of IgG response on arrays of peptides from the sequence of CSP; type: in vivo, mice

C=C(C)C(=O)NCCOC(=O)NCc1ccc(Cn2c(COCC)nc3c(N)nc4ccccc4c32)cc1 [TLR7-MA, 2-methacrylamidoethyl 4-((4-amino-2-(ethoxymethyl)-1H-imidazo[4,5-c]quinolin-1-yl)methyl)benzylcarbamate]
increase in TLR7 activation (TLR7): 4 fold
cell viability / toxicity [1]: no significant decrease in viability

fOVA-p(Man-TLR): fluorescently labeled Ovalbumin (fOVA) conjugated to p(Man-TLR)
fOVA positive CD8+ cross presenting DCs vs fOVA ([2]; FIG. 9A): More than twice as many
increase in number of CD4 activating DCs positive for fOVA vs fOVA ([2]; FIG. 9B): 3 fold
targeting of double negative DCs and dermal conventional DCs vs free fOVA ([2]; FIG. 9C-D): able to target both double negative DCs and dermal conventional DCs
OVA uptake by DCs vs fOVA ([2]; lymph node DCs): took up significantly more OVA

B1: CSP-p(Man-TLR): P. falciparum circumsporozite protein (CSP, full-length) conjugated to p(Man-TLR) (conjugate, UniProt P02893 1-412, looked up)
chain: MMRKLAILSVSSFLFVEALFQEYQCYGSSSNTRVLNELNYDNAGTNLYNELEMNYYGKQENWYSLKKNSRSLGENDDGNNNNGDNGREGKDEDKRDGNNEDNEKLRKPKHKKLKQPGDGNPDPNANPNVDPNANPNVDPNANPNVDPNANPNANPNANPNANPNANPNANPNANPNANPNANPNANPNANPNANPNANPNANPNANPNVDPNANPNANPNANPNANPNANPNANPNANPNANPNANPNANPNANPNANPNANPNANPNANPNANPNANPNANPNANPNKNNQGNGQGHNMPNDPNRNVDENANANNAVKNNNNEEPSDKHIEQYLKKIKNSISTEWSPCSVTCGNGIQVRIKPGSANKPKDELDYENDIEKKICKMEKCSSVFNVVNSSIGLIMVLSFLFLN
modifications: full-length p(Man-TLR) polymer conjugate
IFNγ+CD8+ cells in the lymph nodes vs CSP and R848 and CSP and AS01E ([3]; days 0 and 21): induced more IFNγ+CD8+ cells in the lymph nodes
splenic T follicular helper cells and total IgG response in the blood vs other treatments ([3]; days 0 and 21): generated more splenic T follicular helper cells and a more robust total IgG response in the blood
IFNγ+ and TNFα+ CD4+ T cells in the spleen vs other therapies ([3]; intradermal, 4 footpads, days 0 and 21, 10 μg CSP, 20 μg TLR agonist): induces more IFNγ+ and TNFα+ cCD4+ T cells in the spleen
highest value in the plot of antibody response to CSP regions (CSP peptide stretches; FIG. 21): approx. 60000 units
breadth of IgG response (CSP peptide stretches; antibodies binding to CSP peptide arrays): induced a broader and/or qualitatively distinct IgG response
